# Measured values published in US7803801B2, “Aminopyridine compounds having Syk inhibitory activity” (Japan Tobacco, Inc., priority 2005, dated 2010).
# Where a name gives a salt, the structure may show the parent alone. Read-outs that look alike come from different tables or passages of the source.
# Target: GST-Syk Full Protein (human) (Homo sapiens, UniProt P43405)
# Assay: Syk kinase inhibition test (HTRF method)
# Format: biochemical
# Procedure, shortened: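 Human GST-Syk full-length (6.4 nM) phosphorylated biotin-EDPDYEWPSA-NH2 (250 nM) with 100 μM ATP in HEPES pH 7.0/MgCl2 buffer, 2% DMSO, 30 min at room temperature. EDTA stop, then HTRF detection (streptavidin-XL665, Eu anti-phosphotyrosine) after 1 h; 665/620 ratio read.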
# [1] = Tables 1-x, compounds A, read-out: sykHTRF ave IC50
# [2] = Tables 2-x, thiophene compounds B, read-out: sykHTRK ave IC50
IC50 [1],IC50 [2],Structure (SMILES)
< 0.1 µM,,"CN(C[C@H]1CC[C@H](C(=O)O)CC1)c1ncc(-c2cccc(Nc3ccccn3)n2)s1 [Compound A-699, trans-4-[(N-methyl-N-{5-[6-(pyridin-2-ylamino)pyridin-2-yl]thiazol-2-yl}amino)methyl]cyclohexanecarboxylic acid dihydrochloride]"
< 0.1 µM,,"O=C(O)CC1CCN(c2ncc(-c3cccc(Nc4cc(OCC(F)(F)F)ccn4)n3)s2)CC1 [Compound A-700, [1-(5-{6-[4-(2,2,2-trifluoroethoxy)pyridin-2-ylamino]pyridin-2-yl}thiazol-2-yl)piperidin-4-yl]acetic acid dihydrochloride]"
0.1 to 1 µM,,Cc1ccnc(Nc2cccc(-c3cnc(NCCc4ccccc4)s3)n2)c1 [Compound A-701]
< 0.1 µM,,"Cc1ccnc(Nc2cccc(-c3cnc(N(C)CC(C)(C)O)s3)n2)c1 [Compound A-702, 2-methyl-1-(N-methyl-N-{5-[6-(4-methylpyridin-2-ylamino)pyridin-2-yl]thiazol-2-yl}amino)propan-2-ol]"
0.1 to 1 µM,,Cc1ccnc(Nc2cccc(-c3cnc(N(C)C4CCN(C(=O)N5CCC(O)CC5)CC4)s3)n2)c1 [Compound A-703]
< 0.1 µM,,"Cc1ccnc(Nc2cccc(-c3cnc(N4CCCC(CCC(=O)O)C4)s3)n2)c1 (stereo not shown) [Compound A-704, 3-(1-{5-[6-(4-methylpyridin-2-ylamino)pyridin-2-yl]thiazol-2-yl}piperidin-3-yl)propionic acid]"
< 0.1 µM,,"Cc1ccnc(Nc2cccc(-c3cnc(N(C)C4CCN(C(=O)NCCO)CC4)s3)n2)c1 [Compound A-705, N-(2-hydroxyethyl)-4-(N′-methyl-N′-{5-[6-(4-methylpyridin-2-ylamino)pyridin-2-yl]thiazol-2-yl}amino)piperidine-1-carboxamide]"
0.1 to 1 µM,,CN(CCO)c1ncc(-c2cccc(Nc3ccccn3)n2)s1 [Compound A-706]
< 0.1 µM,,"CC(C)(C(=O)O)C1CCN(c2ncc(-c3cccc(Nc4cnccn4)n3)s2)CC1 [Compound A-707, 2-methyl-2-(1-{5-[6-(pyrazin-2-ylamino)pyridin-2-yl]thiazol-2-yl}piperidin-4-yl)propionic acid dihydrochloride]"
0.1 to 1 µM,,COc1ccc(C)cc1Nc1cccc(-c2cnc(N3CCC(CC(=O)O)CC3)s2)n1 [Compound A-708]
< 0.1 µM,,"CC(=O)N(Cc1ccc(C(=O)O)cc1)Cc1ncc(-c2cccc(Nc3cc(C)ccn3)n2)s1 [Compound A-709, 4-[(N-acetyl-N-{5-[6-(4-methylpyridin-2-ylamino)pyridin-2-yl]thiazol-2-ylmethyl}amino)methyl]benzoic acid]"
< 0.1 µM,,"CC(C)(C)c1ccnc(Nc2cccc(-c3cnc(N4CCC(CC(=O)O)CC4)s3)n2)c1 [Compound A-710, (1-{5-[6-(4-tert-butylpyridin-2-ylamino)pyridin-2-yl]thiazol-2-yl}piperidin-4-yl)acetic acid dihydrochloride]"
< 0.1 µM,,"CC(C)c1ccnc(Nc2cccc(-c3cnc(N4CCC(CC(=O)O)CC4)s3)n2)c1 [Compound A-711, (1-{5-[6-(4-isopropylpyridin-2-ylamino)pyridin-2-yl]thiazol-2-yl}piperidin-4-yl)acetic acid dihydrochloride]"
< 0.1 µM,,"Cc1ccnc(Nc2cccc(-c3cnc(N4CCC5(CC4)CC5C(=O)O)s3)n2)c1 (stereo not shown) [Compound A-712, 6-{5-[6-(4-methylpyridin-2-ylamino)pyridin-2-yl]thiazol-2-yl}-6-azaspiro[2.5]octane-1-carboxylic acid]"
< 0.1 µM,,"CC(C)(C(=O)O)C1CCN(c2ncc(-c3cccc(Nc4cc(CCO)ccn4)n3)s2)CC1 [Compound A-713, 2-[1-(5-{6-[4-(2-hydroxyethyl)pyridin-2-ylamino]pyridin-2-yl}thiazol-2-yl)piperidin-4-yl]-2-methylpropionic acid]"
< 0.1 µM,,"CC(C)(C(=O)O)C1CCN(c2ncc(-c3cccc(Nc4ccccn4)n3)s2)CC1 [Compound A-714, 2-methyl-2-(1-{5-[6-(pyridin-2-ylamino)pyridin-2-yl]thiazol-2-yl}piperidin-4-yl)propionic acid]"
< 0.1 µM,,"O=C(O)C(F)C1CCN(c2ncc(-c3cccc(Nc4cnccn4)n3)s2)CC1 (stereo not shown) [Compound A-715, fluoro-(1-{5-[6-(pyrazin-2-ylamino)pyridin-2-yl]thiazol-2-yl}piperidin-4-yl)acetic acid dihydrochloride]"
< 0.1 µM,,"O=C(O)C(F)C1CCN(c2ncc(-c3cccc(Nc4ccccn4)n3)s2)CC1 (stereo not shown) [Compound A-716, fluoro-(1-{5-[6-(pyridin-2-ylamino)pyridin-2-yl]thiazol-2-yl}piperidin-4-yl)acetic acid dihydrochloride]"
< 0.1 µM,,"CC(C)(O)c1ccnc(Nc2cccc(-c3cnc(N4CCC(CC(=O)O)CC4)s3)n2)c1 [Compound A-717, [1-(5-{6-[4-(1-hydroxy-1-methylethyl)pyridin-2-ylamino]pyridin-2-yl}thiazol-2-yl)piperidin-4-yl]acetic acid dihydrochloride]"
< 0.1 µM,,"Cc1ccnc(Nc2cccc(-c3cnc(N4CCC(C(C)(C)C(=O)O)CC4)s3)n2)c1 [Compound A-718, 2-methyl-2-(1-{5-[6-(4-methylpyridin-2-ylamino)pyridin-2-yl]thiazol-2-yl}piperidin-4-yl)propionic acid dihydrochloride]"
< 0.1 µM,,"Cc1ccnc(Nc2cccc(-c3cnc(N4CCCC(CCCCC(=O)O)C4)s3)n2)c1 (stereo not shown) [Compound A-719, 5-(1-{5-[6-(4-methylpyridin-2-ylamino)pyridin-2-yl]thiazol-2-yl}piperidin-3-yl)pentanoic acid dihydrochloride]"
< 0.1 µM,,"Cc1ccnc(Nc2cccc(-c3cnc(CN(C)C(C)(C)C(N)=O)s3)n2)c1 [Compound A-720, 2-methyl-2-(N-methyl-N-{5-[6-(4-methylpyridin-2-ylamino)pyridin-2-yl]thiazol-2-ylmethyl}amino)propionamide]"
,> 1 µM,CC(=O)c1ccc(-c2cccc(N(C(C)=O)c3cc(C)ccn3)n2)s1 [Compound B-89]

IC50 [1],IC50 [2],Structure (SMILES)
,> 1 µM,CC(=O)c1ccc(-c2cccc(N(C)c3cc(C)ccn3)n2)s1 [Compound B-90]
,0.1 to 1 µM,Cc1ccnc(Nc2cccc(-c3ccc(COc4ccc(C(=O)O)cc4)s3)n2)c1 [Compound B-105]
,0.1 to 1 µM,Cc1ccnc(Nc2cccc(-c3ccc(CN4CCC(C(=O)O)CC4)s3)n2)c1 [Compound B-106]
,0.1 to 1 µM,Cc1ccnc(Nc2cccc(-c3ccc(CN4CCc5cc(C(=O)O)ccc5C4)s3)n2)c1 [Compound B-107]
,0.1 to 1 µM,Cc1ccnc(Nc2cccc(-c3ccc(C(C)OCc4ccc(C(=O)O)cc4)s3)n2)c1 (stereo not shown) [Compound B-108]
,< 0.1 µM,"Cc1ccnc(Nc2cccc(-c3ccc(C(O)C(F)(F)C(=O)O)s3)n2)c1 (stereo not shown) [Compound B-109, 2,2-difluoro-3-hydroxy-3-{5-[6-(4-methylpyridin-2-ylamino)pyridin-2-yl]thiophen-2-yl}propionic acid]"
,0.1 to 1 µM,Cc1ccnc(Nc2cccc(-c3ccc(CN4CCCc5ccc(C(=O)O)cc54)s3)n2)c1 [Compound B-110]
,0.1 to 1 µM,Cc1ccnc(Nc2cccc(-c3ccc(C(=O)NC[C@H]4CC[C@H](C(=O)O)CC4)s3)n2)c1 [Compound B-111]
,0.1 to 1 µM,Cc1ccnc(Nc2cccc(-c3ccc(C(=O)NCc4ccc(C(=O)O)cc4)s3)n2)c1 [Compound B-112]
,0.1 to 1 µM,Cc1ccnc(Nc2cccc(-c3ccc(C(=O)N4CCC(CC(=O)O)CC4)s3)n2)c1 [Compound B-113]
,0.1 to 1 µM,C/C(=C\C(=O)O)c1ccc(-c2cccc(Nc3cc(C)ccn3)n2)s1 [Compound B-114]
,0.1 to 1 µM,Cc1ccnc(Nc2cccc(-c3ccc(C(=O)N4CCC(C(=O)O)CC4)s3)n2)c1 [Compound B-115]
,< 0.1 µM,"Cc1ccnc(Nc2cccc(-c3ccc(CNCc4ccc(C(=O)O)cc4)s3)n2)c1 [Compound B-116, 4-[({5-[6-(4-methylpyridin-2-ylamino)pyridin-2-yl]thiophen-2-ylmethyl}amino)methyl]benzoic acid]"
,0.1 to 1 µM,Cc1ccnc(Nc2cccc(-c3ccc(C(=O)N[C@H](C(=O)O)C(C)C)s3)n2)c1 [Compound B-117]
,0.1 to 1 µM,Cc1ccnc(Nc2cccc(-c3ccc(CNC[C@H]4CC[C@H](C(=O)O)CC4)s3)n2)c1 [Compound B-118]
,< 0.1 µM,"CC(=O)N(Cc1ccc(C(=O)O)cc1)Cc1ccc(-c2cccc(Nc3cc(C)ccn3)n2)s1 [Compound B-119, 4-[(N-acetyl-N-{5-[6-(4-methylpyridin-2-ylamino)pyridin-2-yl]thiophen-2-ylmethyl}amino)methyl]benzoic acid]"
,< 0.1 µM,"CC(=O)N(Cc1ccc(-c2cccc(Nc3cc(C)ccn3)n2)s1)C[C@H]1CC[C@H](C(=O)O)CC1 [Compound B-120, trans-4-[(N-acetyl-N-{5-[6-(4-methylpyridin-2-ylamino)pyridin-2-yl]thiophen-2-ylmethyl}amino)methyl]cyclohexanecarboxylic acid]"
,0.1 to 1 µM,Cc1ccnc(Nc2cccc(-c3ccc(CNC(=O)[C@H]4CC[C@H](C(=O)O)CC4)s3)n2)c1 [Compound B-121]
,0.1 to 1 µM,Cc1ccnc(Nc2cccc(-c3ccc(C(=O)N(C)Cc4ccc(C(=O)O)cc4)s3)n2)c1 [Compound B-122]
,0.1 to 1 µM,Cc1ccnc(Nc2cccc(-c3ccc(CN(C)C(=O)[C@H]4CC[C@H](C(=O)O)CC4)s3)n2)c1 [Compound B-123]
,< 0.1 µM,"CC(=O)N(CCC(=O)O)Cc1ccc(-c2cccc(Nc3cc(C)ccn3)n2)s1 [Compound B-124, 3-(N-acetyl-N-{5-[6-(4-methylpyridin-2-ylamino)pyridin-2-yl]thiophen-2-ylmethyl}amino)propionic acid hydrochloride]"
,0.1 to 1 µM,Cc1ccnc(Nc2cccc(-c3ccc(CN(C)C(=O)c4ccc(C(=O)O)cc4)s3)n2)c1 [Compound B-125]
,0.1 to 1 µM,Cc1ccnc(Nc2cccc(-c3ccc(CN(Cc4ccccc4)C(=O)CCC(=O)O)s3)n2)c1 [Compound B-126]
